# According to patent US10849881B2, “Octahydro-cyclobuta[1,2-c;3,4-c′]dipyrrol-2-yl” (Hoffmann-La Roche Inc., priority 2013, dated 2020):
# Target: ATX (human His-tagged) (Homo sapiens (Human), UniProt Q13822)
# Test: Human ATX enzyme inhibition assay (fluorescence quenching, MR121 substrate)
# Assay type: biochemical
# Details: 30 nM ATX, 1 μM MR121 substrate, 30° C., pH 8.0
# Experimental: Human ATX Enzyme Inhibition Assay
# ATX inhibition was measured by a fluorescence quenching assay using a specifically labeled substrate analogue (MR121 substrate). To obtain this MR121 substrate, BOC and TBS protected 6-amino-hexanoic acid (R)-3-({2-[3-(2-{2-[2-(2-amino-ethoxy)-ethoxy]-ethoxy}-ethoxy)-propionylamino]-ethoxy}-hydroxy-phosphoryloxy)-2-hydroxy-propyl ester (Ferguson et al., Org Lett 2006, 8 (10), 2023) was labeled with MR121 fluorophore (CAS 185308-24-1, 1-(3-carboxypropyl)-11-ethyl-1,2,3,4,8,9,10,11-octahydro-dipyrido[3,2-b:2′,3′-i]phenoxazin-13-ium) on the free amine of the ethanolamine side and then, after deprotection, subsequently with tryptophan on the side of the aminohexanoic acid.
# Assay working solutions were made as follows:
# Assay buffer (50 mM Tris-HCl, 140 mM NaCl, 5 mM KCl, 1 mM CaCl2, 1 mM MgCl2, 0.01% Triton-X-100, pH 8.0;
# ATX solution: ATX (human His-tagged) stock solution (1.08 mg/mL in 20 mM bicine, pH 8.5, 0.15 M NaCl, 10% glycerol, 0.3% CHAPS, 0.02% NaN3), diluted to 1.4-2.5× final concentration in assay buffer;
# MR121 substrate solution: MR121 substrate stock solution (800 μM MR121 substrate in DMSO), diluted to 2-5× final concentration in assay buffer.
# Test compounds (10 mM stock in DMSO, 8 μL) were obtained in 384 well sample plates (Corning Costar #3655) and diluted with 8 μL DMSO. Row-wise serial dilutions were made by transferring 8 μL cpd solution to the next row up to row O. The compound and control solutions were mixed five times and 2 μL were transferred to 384 well assay plates (Corning Costar #3702). Then, 15 μL of 41.7 nM ATX solution was added (30 nM final concentration), mixed five times and then incubated for 15 minutes at 30° C. 10 μL of MR121 substrate solution was added (1 μM final concentration), mixed 30 times and then incubated for 15 minutes at 30′C.
row,IC50 [µM],SMILES
1,0.0077,"COCCOc1nc(C(=O)N2C[C@@H]3[C@H]4CN(C(=O)c5ccc6[nH]nnc6c5)C[C@H]4[C@@H]3C2)cc2ccccc12 [Example 1.057, [(3aR,3bS,6aR,6bS)-5-(1H-benzotriazole-5-carbonyl)-octahydro-cyclobuta[1,2-c;3,4-c′]dipyrrol-2-yl]-[1-(2-methoxy-ethoxy)-isoquinoline-3-yl]-methanone]"
2,0.13,"N#CCn1c(C(=O)N2C[C@@H]3[C@H]4CN(C(=O)c5ccc6[nH]nnc6c5)C[C@H]4[C@@H]3C2)cc2ccccc21 [Example 1.036, {2-[(3aR,3bS,6aR,6bS)-5-(1H-benzotriazole-5-carbonyl)-octahydro-cyclobuta[1,2-c;3,4-c′]dipyrrole-2-carbonyl]-indol-1-yl}-acetonitrile]"
3,0.828,"N#Cc1ccc2[nH]c(C(=O)N3C[C@@H]4[C@H]5CN(C(=O)c6ccc7[nH]nnc7c6)C[C@H]5[C@@H]4C3)cc2c1 [Example 1.027, 2-[(3aR,3bS,6aR,6bS)-5-(1H-benzotriazole-5-carbonyl)-octahydro-cyclobuta[1,2-c;3,4-c′]dipyrrole-2-carbonyl]-1H-indole-5-carbonitrile]"
4,0.086,"O=C(c1ccc2ccccc2c1)N1C[C@@H]2[C@H](C1)[C@H]1CN(C(=O)c3ccc4[nH]nnc4c3)C[C@@H]21 [Example 1.012, [(3aS,3bS,6aR,6bR)-5-(1H-benzotriazole-5-carbonyl)-octahydro-cyclobuta[1,2-c;3,4-c′]dipyrrol-2-yl]-naphthalen-2-yl-methanone]"
5,0.007,"CCOc1cc(C(=O)N2C[C@@H]3[C@H](C2)[C@H]2CN(C(=O)c4ccc5[nH]nnc5c4)C[C@@H]32)cc2ccccc12 [Example 1.051, [(3aS,3bS,6aR,6bR)-5-(1H-benzotriazole-5-carbonyl)-octahydro-cyclobuta[1,2-c;3,4-c′]dipyrrol-2-yl]-(4-ethoxy-naphthalen-2-yl)-methanone]"
6,0.205,"Cc1cc(C(=O)N2C[C@@H]3[C@H]4CN(C(=O)c5ccc6[nH]nnc6c5)C[C@H]4[C@@H]3C2)nc2ccccc12 [Example 1.047, [(3aR,3bS,6aR,6bS)-5-(1H-benzotriazole-5-carbonyl)-octahydro-cyclobuta[1,2-c;3,4-c′]dipyrrol-2-yl]-(4-methyl-quinolin-2-yl)-methanone]"
7,1.47,"O=C(c1ccc2[nH]nnc2c1)N1C[C@@H]2[C@H](C1)[C@H]1CN(C(=O)c3cc4ccccc4[nH]3)C[C@@H]21 [Example 1.023, [(3aR,3bS,6aR,6bS)-5-(1H-benzotriazole-5-carbonyl)-octahydro-cyclobuta[1,2-c;3,4-c′]dipyrrol-2-yl]-(1H-indol-2-yl)-methanone]"

# Further lines, the molecule ahead of its results:
row,SMILES,IC50 [µM]
1,"CS(=O)(=O)c1cc(C(=O)N2C[C@@H]3[C@H]4CN(C(=O)c5ccccc5)C[C@H]4[C@@H]3C2)cnc1OCC(F)(F)F [Example 1.111, {(3aS,3bS,6aR,6bR)-5-[5-methanesulfonyl-6-(2,2,2-trifluoro-ethoxy)-pyridine-3-carbonyl]-octahydro-cyclobuta[1,2-c;3,4-c′]dipyrrol-2-yl}-phenyl-methanone]",0.331
2,"O=C(c1cc2ccc(OC(F)(F)F)cc2[nH]1)N1C[C@@H]2[C@H](C1)[C@H]1CN(C(=O)[C@@H]3CCc4[nH]nnc4C3)C[C@@H]21 [Example 1.020, [(3aR,3bS,6aR,6bS)-5-((R)-4,5,6,7-tetrahydro-1H-benzotriazole-5-carbonyl)-octahydro-cyclobuta[1,2-c;3,4-c′]dipyrrol-2-yl]-(6-trifluoromethoxy-1H-indol-2-yl)-methanone]",0.006
3,"O=C(c1ccc2[nH]nnc2c1)N1C[C@@H]2[C@H](C1)[C@H]1CN(C(=O)c3cc(-c4ccc(Cl)cc4)c(OCC(F)(F)F)cn3)C[C@@H]21 [Example 1.107, (1H-benzotriazol-5-yl)-{(3aS,3bR,6aS,6bR)-5-[4-(4-chloro-phenyl)-5-(2,2,2-trifluoro-ethoxy)-pyridine-2-carbonyl]-octahydro-cyclobuta[1,2-c;3,4-c′]dipyrrol-2-yl}-methanone]",0.141
4,"CCOc1cc(C(=O)N2C[C@@H]3[C@H]4CN(C(=O)c5ccc6[nH]nnc6c5)C[C@H]4[C@@H]3C2)cc2c1ccn2CC(F)(F)F [Example 1.085, (1H-benzotriazol-5-yl)-{(3aS,3bS,6aR,6bR)-5-[4-ethoxy-1-(2,2,2-trifluoro-ethyl)-1H-indole-6-carbonyl]-octahydro-cyclobuta[1,2-c;3,4-c′]dipyrrol-2-yl}-methanone]",0.0027
5,"CC(C)Oc1cc(C(=O)N2C[C@@H]3[C@H](C2)[C@H]2CN(C(=O)c4ccc5[nH]nnc5c4)C[C@@H]32)cc2c1CCCC2 [Example 1.078, [(3aS,3bS,6aR,6bR)-5-(1H-benzotriazole-5-carbonyl)-octahydro-cyclobuta[1,2-c;3,4-c′]dipyrrol-2-yl]-(4-isopropoxy-5,6,7,8-tetrahydro-naphthalen-2-yl)-methanone]",0.0035
6,"CC(C)Oc1cc(C(=O)N2C[C@@H]3[C@H](C2)[C@H]2CN(C(=O)c4ccc5[nH]nnc5c4)C[C@@H]32)cc2ccccc12 [Example 1.052, [(3aS,3bS,6aR,6bR)-5-(1H-benzotriazole-5-carbonyl)-octahydro-cyclobuta[1,2-c;3,4-c′]dipyrrol-2-yl]-(4-isopropoxy-naphthalen-2-yl)-methanone]",0.0035
7,"Cc1ccc(C(=O)N2C[C@@H]3[C@H](C2)[C@H]2CN(C(=O)c4ccc(OCC5CC5)nn4)C[C@@H]32)cc1C [Example 1.102, [(3aS,3bR,6aS,6bR)-5-(6-cyclopropylmethoxy-pyridazine-3-carbonyl)-octahydro-cyclobuta[1,2-c;3,4-c′]dipyrrol-2-yl]-(3,4-dimethyl-phenyl)-methanone]",0.992
8,"O=C(c1ccc2[nH]nnc2c1)N1C[C@@H]2[C@H](C1)[C@H]1CN(C(=O)c3cc(OCC(F)(F)F)c4ccccc4n3)C[C@@H]21 [Example 1.084, (1H-benzotriazol-5-yl)-{(3aS,3bR,6aS,6bR)-5-[4-(2,2,2-trifluoro-ethoxy)-quinoline-2-carbonyl]-octahydro-cyclobuta[1,2-c;3,4-c′]dipyrrol-2-yl}-methanone]",0.005
9,"O=C(c1ccc(-c2ccc(Cl)cc2)cc1)N1C[C@@H]2[C@H](C1)[C@H]1CN(C(=O)[C@@H]3CCc4[nH]nnc4C3)C[C@@H]21 [Example 1.018, (4′-chloro-biphenyl-4-yl)-[(3aR,3bS,6aR,6bS)-5-((R)-4,5,6,7-tetrahydro-1H-benzotriazole-5-carbonyl)-octahydro-cyclobuta[1,2-c;3,4-c′]dipyrrol-2-yl]-methanone]",0.016
10,"O=C(/C=C/c1ccc(OC(F)(F)F)cc1)N1C[C@@H]2[C@H](C1)[C@H]1CN(C(=O)c3ccc4[nH]nnc4c3)C[C@@H]21 [Example 1.003, (E)-1-[(3aS,3bR,6aS,6bR)-5-(1H-benzotriazole-5-carbonyl)-octahydro-cyclobuta[1,2-c;3,4-c′]dipyrrol-2-yl]-3-(4-trifluoromethoxy-phenyl)-propenone]",0.0085
11,"CC(C)Oc1cc(C(=O)N2C[C@@H]3[C@H]4CN(C(=O)c5ccc6[nH]nnc6c5)C[C@H]4[C@@H]3C2)cc2c1ccn2C [Example 1.065, [(3aS,3bS,6aR,6bR)-5-(1H-benzotriazole-5-carbonyl)-octahydro-cyclobuta[1,2-c;3,4-c′]dipyrrol-2-yl]-(4-isopropoxy-1-methyl-1H-indol-6-yl)-methanone]",0.0065
12,"O=C(c1ccc2[nH]nnc2c1)N1C[C@@H]2[C@H](C1)[C@H]1CN(C(=O)c3ccc(C4CC4)c(OCC4CC4)n3)C[C@@H]21 [Example 1.087, (1H-benzotriazol-5-yl)-[(3aS,3bR,6aS,6bR)-5-(5-cyclopropyl-6-cyclopropylmethoxy-pyridine-2-carbonyl)-octahydro-cyclobuta[1,2-c;3,4-c′]dipyrrol-2-yl]-methanone]",0.0153
13,"O=C(c1ccc2[nH]nnc2c1)N1C[C@@H]2[C@H](C1)[C@H]1CN(C(=O)c3ccc(C(F)(F)F)c(OCC(F)(F)F)n3)C[C@@H]21 [Example 1.097, (1H-benzotriazol-5-yl)-{(3aS,3bR,6aS,6bR)-5-[6-(2,2,2-trifluoro-ethoxy)-5-trifluoromethyl-pyridine-2-carbonyl]-octahydro-cyclobuta[1,2-c;3,4-c′]dipyrrol-2-yl}-methanone]",0.025
14,"O=C(c1ccc2[nH]nnc2c1)N1C[C@@H]2[C@H](C1)[C@H]1CN(C(=O)c3cc(OCc4ccccc4)c4cc[nH]c4c3)C[C@@H]21 [Example 1.053, [(3aS,3bS,6aR,6bR)-5-(1H-benzotriazole-5-carbonyl)-octahydro-cyclobuta[1,2-c;3,4-c′]dipyrrol-2-yl]-(4-benzyloxy-1H-indol-6-yl)-methanone]",0.014
